Experimental data as given in publication PMC6611794, “Development of a high-throughput strategy for discovery of potent analogues of antibiotic lysocin E” (Nature Communications, 2019).
Values after ≈ are worked out from the molar mass of the structure shown. Like-named read-outs stand apart in the source and are kept apart here. Where a SMILES comes first, the peptide text is derived from it. Bridges are numbered along the chain shown (N, C = ends). [ ]: non-standard residue; d: D form. The star is where a group is joined. Hexanoyl(3R-OH,5-Me) = CC(C)C[C@@H](O)CC(=O)*; dNMeF = CN[C@H](Cc1ccccc1)C(=O)O

Experiments:
S. aureus [1] = test system: S. aureus; parameters: method as in PMID 25485686; details: S. aureus-infected mice; cited from earlier work
From the text: Lysocin E (1, Fig. 1a) was isolated from Lysobacter sp. as a new antibiotic and structurally determined to be a 37-membered depsipeptide (molecular weight = 1618 Da) with an N-methylated amide and ester linkages. The macrocyclic core of 12 residues contains four different non-proteinogenic D-amino acids (D-Arg-2/7, N-Me-D-Phe-5, D-Gln-9, D-Trp-10) and is appended with (R)-3-hydroxy-5-methylhexanamide. […] Screening of the additives ind ...

[2] = test system: Staphylococcus aureus MSSA1
Procedure: Evaluation of antimicrobial spectra of peptides. The MIC assay was performed according to the Clinical and Laboratory Standards Institute protocols. The antimicrobial activities of the peptides were measured using the broth microdilution method.1 Serial dilutions of peptides were prepared in cation adjusted Müller Hinton Broth. Each dilution (100 µL) was dispensed to each well of the round-bottom plate to obtain final concentrations ranging from 64 µg/m L to 0.0075 µg/m L. Bacteria were grown at 37 °C overnight on Tryptic Soy Broth or Müller Hinton Broth agar plates. Bacterial inoculum was prepared by direct suspension of the colonies in 0.9% saline, and adjusted to obtain OD 625 0.08–0.13 using a spectrophotometer UV -1280 (Shimadzu). The resultant suspension was diluted with cation adjusted Müller Hinton Broth (1/20). The resultant mixture (10 µL) was inoculated to each well of the plates (approximately 5 ×10^4 CFU/well ), mixed, and incubated at 37 °C for 18 h. The MIC value was determined as the minimum concentration that inhibited growth of bacteria. To evaluate the antimicrobial activities of peptides in the presence of serum, 10% bovine calf serum in cation adjusted Müller Hinton Broth was used.

S. aureus [3] = type: cell-based, Staphylococcus aureus; details: 18 h
Procedure: (§1) Antimicrobial activity assay of bead-derived peptides. […]
(§2) plate was added DMSO (1 µL/well). […]
(§3) precipitation of the grown cells was examined.
(§4) Evaluation of antimicrobial spectra of peptides. The MIC assay was performed according to the Clinical and Laboratory Standards Institute protocols. The antimicrobial activities of the peptides were measured […]
(§5) Soy Broth or Müller Hinton Broth agar plates. Bacterial inoculum was prepared by direct suspension of the […]
(§6) and incubated at 37 °C for 18 h. […]
(§7) inhibited growth of bacteria.

MRSA4 = type: cell-based, Staphylococcus aureus; details: 18 h
Procedure: as §1, §2, §3, §4, §5, §6, §7

[4] = parameters: method as in our previous studies; details: ref our previous studies, cited from earlier work
From the text: Lysocin E (1, Fig. 1a) was isolated from Lysobacter sp. as a new antibiotic and structurally determined to be a 37-membered depsipeptide (molecular weight = 1618 Da) with an N-methylated amide and ester linkages. The macrocyclic core of 12 residues contains four different non-proteinogenic D-amino acids (D-Arg-2/7, N-Me-D-Phe-5, D-Gln-9, D-Trp-10) and is appended with (R)-3-hydroxy-5-methylhexanamide.

[5] = On-bead menaquinone complexation assay (fluorescence of 2H); type: binding; details: single library bead (hit beads >1000 a.u.); average of three readings
Procedure: Next, the feasibility of the on-bead complexation assay was assessed using bead-linked lysocin E 30 and MK-4 (2). Our initial assay based on the finding that 1 and 2 form a red precipitate upon complexation (Supplementary Fig. 2) was not robust, because the magnitude of the red color was not proportional to the amount of captured 2 (Fig. 2b, c). We therefore developed a fluorescence-based method for quantifying 2 by reducing its naphthoquinone moiety to fluorescent hydroquinone 2H. One bead of 30 was incubated with 2 in MeOH, washed by MeOH in a microplate well, and then the bead-bound 2 was eluted under more forcing hydrophobic conditions (n-BuOH at 50 °C). The eluate containing 2 was treated with NaBH4 in n-BuOH to produce 2H[46]. The fluorescence intensity of 2H was evaluated to determine the quantity of 2 bound to one bead of 30. The method was found with a small margin of error (1026 ± 64 a.u.), indicating its high accuracy (Fig. 2a and Supplementary Fig. 3). Importantly, the structure of 1 remained intact during the complexation assay as judged by UHPLC and mass analyses.
General procedures for menaquinone complexation assay. To the bead-linked lysocin E analogues in LibraTube was added a solution of menaquinone-4 (2) in MeOH (10 mM, 1.0 mL/1000 beads). The mixture was incubated at room temperature for 12 h. A suspension of the beads in MeOH (200 beads/200 µL) was transferred to a 2.0 mL microtube.
Each bead in the microtube was transferred to each well of a 96-well filtration plate (278011, Thermo Fisher Scientific, 1 bead/well) with the solution of 2 (20 µL/bead) using a micropipette. To each well was added MeOH (400 µL), and the beads was filtered by gravity flow (× 3). The beads in the plate were dried under vacuum for 0.5–1 h. The dried beads were transferred to a 96-well PCR plate (652270, Greiner bio-one, 1 bead/well) with MeOH (20 µL/well) using a micropipette. The solution was removed under a stream of Ar at 40 °C to give the 2-bound bead-linked peptides.
To the 2-bound bead-linked peptides in the plate was added n-BuOH (30 µL/well) at room temperature .
The suspension was incubated at 50 °C for 1 h. The resultant mixture in the plate was centrifuged at 3500 × g at room temperature for 10 sec . The supernatant in each well was transferred to the corresponding well of a black polystyrene flat -bottom 96-well plate (655086, Greiner bio-one). The solution was concentrated under a stream of Ar at 40 °C to give the eluted 2.
To the above eluted 2 in the plate was added n-BuOH (25 µL/well) at room temperature. The plate was vortexed at room temperature for 10 min. To the resultant solution was added a solution of NaBH4 in n-BuOH (1.0 mM, 25 µL/well). The plate was vortexed at room temperature for 10 min. The fluorescence of menahydroquinone (2H, Ex. 250 nm/Em. 430 nm) of each well was measured at room temperature every 3 min (0, 3, and 6 min) on Gemini EM microplate reader (Molecular Devices) . The three fluorescence intensities of each bead were averaged and plotted against the bead number.
Evaluation of menaquinone complexation activities of the selected bead-linked peptides. Bead-linked peptides 30, BLP1, and BLP2 were synthesized according to the above described procedures (loading rate:
0.222 mmol/g). The bead-linked peptides were subjected to the MK complexation assay described above.
The obtained fluorescent intensities of 2H (arbitrary unit) were 1026 ± 64 for 30, 396 ± 27 for BLP1, 72.9 ± 2.0 for BLP2, and 41.6 ± 0.1 for background adsorption (no bead), respectively (Supplementary Figure 3).

In the case of `CC[C@H](C)[C@@H]1NC(=O)[C@@H](Cc2c[nH]c3ccccc23)NC(=O)[C@@H](CCC(N)=O)NC(=O)[C@H](CCC(=O)O)NC(=O)[C@@H](CCCNC(=N)N)NC(=O)[C@H](CC(C)C)NC(=O)[C@@H](Cc2ccccc2)N(C)C(=O)CNC(=O)[C@H](CO)NC(=O)[C@@H](CCCNC(=N)N)NC(=O)[C@@H](NC(=O)C[C@H](O)CC(C)C)[C@@H](C)OC(=O)[C@H]([C@@H](C)O)NC1=O` [Peptide 1, Lysocin E] ({Hexanoyl(3R-OH,5-Me)}-T[dR]SG[dNMeF]L[dR]E[dQ][dW]IT; ester 1-C), the ED50 (S. aureus [1]) is given as 0.5 mg/kg, the MIC ([2]; 10% BCS (+)) is given as 0.0625 µg/mL (≈ 0.0386 µM) and the MIC ([2]; BCS free) is given as 2.0 µg/mL (≈ 1.24 µM). The “original MIC value against S. aureus” value (S. aureus [3]) was 2 to 4 µg/mL, the MIC (MRSA4) was 0.25 µg/mL (≈ 0.155 µM) and the Kd ([4]; 1:1 complex with MK-4, in vitro) was 4.5 µM. For the same compound, the “affinity toward ubiquinone-10” value ([4]; in vitro) was “no affinity” and the “fluorescence intensity of 2H” value [5] was 1369.78 a.u.
